Results taken from US9029368B2, “3,7-disubstituted octahydro-2H-pyrido[4,3-E][1,3]oxazin-2-one antibiotics” (Actelion Pharmaceuticals Ltd., priority 2011, dated 2015).
Converted amounts (≈) assume the structure as drawn.

test system: S. aureus 29213; assay: Bacterial growth minimal inhibitory concentrations (microdilution in cation-adjusted Mueller-Hinton Broth, CLSI M7-A7); format: cell-based; details: Staphylococcus aureus, 29213, microdilution method
Procedure: Bacterial Growth Minimal Inhibitory Concentrations: Minimal inhibitory concentrations (MICs; mg/l) were determined in cation-adjusted Mueller-Hinton Broth by a microdilution method following the description given in “Methods for Dilution Antimicrobial Susceptibility Tests for Bacteria that Grow Aerobically”, Approved standard, 7th ed., Clinical and Laboratory Standards Institute (CLSI) Document M7-A7, Wayne, Pa., USA, 2006. All Example compounds were tested against several Gram positive and Gram negative bacteria.

First: COc1ccc2ncc(F)c(C(O)CN3CC[C@@H]4CN(c5ccc6c(c5)NC(=O)CO6)C(=O)O[C@H]4C3)c2n1 (mixture of isomers) [Example 32, (4aR*,8aR*)-7-((2RS)-2-(3-fluoro-6-methoxy-1,5-naphthyridin-4-yl)-2-hydroxyethyl)-3-(3-oxo-3,4-dihydro-2H-benzo[b][1,4]oxazin-6-yl)octahydro-2H-pyrido[4,3-e][1,3]oxazin-2-one]
Second: COc1ccc2ncc(F)c([C@H](O)CN3CC[C@H]4CN(c5ccc6c(c5)OCCO6)C(=O)O[C@@H]4C3)c2n1 (single isomer, unassigned) [Example 14]
The MIC of the first is higher: 0.125 µg/mL (≈ 0.239 µM) for the first, at most 0.031 µg/mL for the second.

Compared with `COc1ccc2ccc(=O)n(CCN3CC[C@@H]4CN(c5ccc6c(c5)NC(=O)CO6)C(=O)O[C@H]4C3)c2n1` (racemic) [Example 34, rac-(4aR*,8aR*)-7-(2-(7-methoxy-2-oxo-1,8-naphthyridin-1(2H)-yl)ethyl)-3-(3-oxo-3,4-dihydro-2H-benzo[b][1,4]oxazin-6-yl)octahydro-2H-pyrido[4,3-e][1,3]oxazin-2-one], `COc1ccc2ncc(F)c(CCN3CC[C@@H]4CN(c5ccc6c(c5)OCCO6)C(=O)O[C@H]4C3)c2n1` (single isomer, unassigned) [Example 1] is lower in MIC: 0.25 µg/mL (≈ 0.495 µM) for the first, at most 0.031 µg/mL for the second.

Going from `O=C1O[C@H]2CN(C[C@H]3Cc4c(F)ccc5ccc(=O)n3c45)CC[C@@H]2CN1c1ccc2c(c1)OCCO2` (relative stereo) [Example 29, (R)-2-[(4aR*,8aR*)-3-(2,3-dihydro-benzo[1,4]dioxin-6-yl)-2-oxo-octahydro-pyrido[4,3-e][1,3]oxazin-7-ylmethyl]-9-fluoro-1,2-dihydro-pyrrolo[3,2,1-ij]quinolin-4-one] to `COc1ccc2ncc(F)c(CCN3CC[C@H]4CN(c5ccc6c(c5)OCCO6)C(=O)O[C@@H]4C3)c2n1` (single isomer, unassigned) [Example 2], the MIC falls from 0.25 µg/mL (≈ 0.509 µM) to at most 0.031 µg/mL.

Going from `COc1ccc2ncc(F)c([C@H](O)CN3CC[C@@H]4CN(c5ccc6c(c5)OCCO6)C(=O)O[C@H]4C3)c2n1` (single isomer, unassigned) [Example 15] to `COc1ccc2ncc(F)c(CCN3CC[C@@H]4CN(c5ccc6c(n5)NC(=O)CS6)C(=O)O[C@H]4C3)c2n1` (single isomer, unassigned) [Example 20], the MIC falls from 0.063 µg/mL (≈ 0.123 µM) to at most 0.031 µg/mL.

`COc1ccc2ncc(F)c(CCN3CC[C@H]4CN(c5ccc6c(n5)NC(=O)CS6)C(=O)O[C@@H]4C3)c2n1` (single isomer, unassigned) [Example 21] showed an MIC of at most 0.031 µg/mL.

same assay, conditions: microdilution method

`O=C1COc2ccc(N3C[C@H]4CCN(C[C@H]5Cc6c(F)ccc7ccc(=O)n5c67)C[C@@H]4OC3=O)nc2N1` (relative stereo) [Example 33, (4aR*,8aR*)-7-0(R)-9-fluoro-4-oxo-2,4-dihydro-1H-pyrrolo[3,2,1-ij]quinolin-2-yl)methyl)-3-(3-oxo-3,4-dihydro-2H-pyrido[3,2-b][1,4]oxazin-6-yl)octahydro-2H-pyrido[4,3-e][1,3]oxazin-2-one] was tested, and the “MIC for S. aureus 29213” value was 0.125 mg/L.
